The subject of one data set is Pichia kudriavzevii. Description: Antifungal activity against Candida krusei ATCC 6258 after 24 hrs. Type of data set: functional. To be noted: ATCC 6258, 24 h.
A further data set relates to Trichophyton rubrum. Put plainly: Antifungal activity against Trichophyton rubrum ATCC 28188 after 6 days. It counts as functional. The note with it: ATCC 28188, 144 h.
The test system of data set [1] is Candida albicans. Put plainly: Antifungal activity against Candida albicans ATCC 90028 after 24 hrs. Type of data set: functional. The note with it: ATCC 90028, 24 h.
In a further data set the test system is Aspergillus terreus. Description: Antifungal activity against Aspergillus terreus CDC 317 after 48 hrs. It counts as functional. The note with it: CDC 317, 48 h.
Data set [2] can be described thus: Selectivity index, ratio of IC50 for african green monkey Vero cells to IC50 for Trichophyton rubrum ATCC 28188. Type of data set: toxicity, cell-based. The note with it: read-out: Ratio IC50.
Data set [3] concerns Trichophyton mentagrophytes. Description: Antifungal activity against Trichophyton mentagrophytes ATCC 24198 after 6 days. The note with it: ATCC 24198, 144 h. It counts as functional.
Data set [4] can be described thus: Selectivity index, ratio of IC50 for african green monkey Vero cells to IC50 for Candida krusei ATCC 6258. It counts as toxicity, cell-based. The note with it: read-out: Ratio IC50.
Another data set relates to Aspergillus fumigatus. Put plainly: Antifungal activity against Aspergillus fumigatus ATCC 204305 after 48 hrs. Type of data set: functional. The note with it: ATCC 204305, 48 h.
In data set [5] the test system is Candida albicans. Description: Antifungal activity against Candida albicans ATCC 10231 after 24 hrs. To be noted: ATCC 10231, 24 h. It counts as functional.
Data set [6] relates to Candida tropicalis. Put plainly: Antifungal activity against Candida tropicalis CECT 11901 after 24 hrs. The note with it: CECT 11901, 24 h.
A further data set relates to Vero. Put plainly: Cytotoxicity against african green monkey Vero cells after 48 hrs by MTT assay. To be noted: Chlorocebus sabaeus. It counts as cell-based. (In general: Tetrazolium assays rely on reduction of a dye to a coloured formazan, in cell work by metabolically active cells.)
In another data set the test system is Aspergillus niger. Put plainly: Antifungal activity against Aspergillus niger ATCC 16404 after 48 hrs. Type of data set: functional. To be noted: ATCC 16404, 48 h.
Data set [7] has as its system Candida parapsilosis. Description: Antifungal activity against Candida parapsilosis ATCC 22019 after 24 hrs. Type of data set: functional. To be noted: ATCC 22019, 24 h.
Data set [8] can be described thus: Selectivity index, ratio of IC50 for african green monkey Vero cells to IC50 for Aspergillus fumigatus ATCC 204305. It counts as toxicity, cell-based. The note with it: read-out: Ratio IC50.
The next data set deals with Clavispora lusitaniae. Put plainly: Antifungal activity against Candida lusitaniae ATCC 200951 after 24 hrs. Type of data set: functional. The note with it: ATCC 200951, 24 h.
For a further data set, the system named is Fusarium oxysporum. Description: Antifungal activity against Fusarium oxysporum ATCC 48112 after 48 hrs. It counts as functional. The note with it: ATCC 48112, 48 h.
For data set [9], the system named is Candida tropicalis. Put plainly: Antifungal activity against Candida tropicalis ATCC 200956 after 24 hrs. Type of data set: functional. The note with it: ATCC 200956, 24 h.
The test system of another data set is Aspergillus flavus. Put plainly: Antifungal activity against Aspergillus flavus ATCC 204304 after 48 hrs. It counts as functional. The note with it: ATCC 204304, 48 h.
Data set [10] deals with Candida parapsilosis. Description: Antifungal activity against Candida parapsilosis ATCC 22019 at > MIC up to 24 hrs by time kill study. Type of data set: functional, organism-based.
A short description of data set [11]: Selectivity index, ratio of IC50 for african green monkey Vero cells to IC50 for Candida lusitaniae ATCC 200951. Type of data set: toxicity, cell-based. The note with it: read-out: Ratio IC50.
A short description of data set [12]: Selectivity index, ratio of IC50 for african green monkey Vero cells to IC50 for Aspergillus flavus ATCC 204304. Type of data set: toxicity, cell-based. To be noted: read-out: Ratio IC50.
Data set [13] concerns Candida parapsilosis. Description: Antifungal activity against Candida parapsilosis ATCC 22019 at 0.5 MIC up to 24 hrs by time kill study. It counts as functional, organism-based.
The nature of data set [14]: Selectivity index, ratio of IC50 for african green monkey Vero cells to IC50 for Candida parapsilosis ATCC 22019. Type of data set: toxicity, cell-based.
A short description of data set [15]: Selectivity index, ratio of IC50 for african green monkey Vero cells to IC50 for Trichophyton mentagrophytes ATCC 24198. Type of data set: toxicity, cell-based. The note with it: read-out: Ratio IC50.

Converted amounts (≈) assume the structure as drawn. The source made the active and inactive calls. The rule behind the calls is not given here.

What is called MIC90 is an inhibitory concentration at the 90% level, which refers to growth in some studies and to a panel of isolates in others. By IC50 is commonly meant the concentration needed to halve the response being measured. On to `CC(C)=CCCc1ccc2c(c1)C(=O)C(Cl)=CC2=O`, for which the MIC90 in the data set on Pichia kudriavzevii is 2.4 µg/mL (≈ 8.74 µM); in the data set on Trichophyton rubrum it was 4 µg/mL (≈ 14.6 µM); against Candida albicans [1], > 32 µg/mL; against Aspergillus terreus, > 32 µg/mL; in data set [3], 6.4 µg/mL (≈ 23.3 µM); with Aspergillus fumigatus it was 11.3 µg/mL (≈ 41.1 µM). In addition, the MIC90 is > 32 µg/mL against Candida albicans [5]; > 32 µg/mL in the data set on Candida tropicalis [6]; > 32 µg/mL with Aspergillus niger; 4 µg/mL (≈ 14.6 µM) against Candida parapsilosis [7]; 3.2 µg/mL (≈ 11.6 µM) in the data set with Clavispora lusitaniae; 32 µg/mL (≈ 116 µM) with Fusarium oxysporum. In addition, the MIC90 with Candida tropicalis [9] was 11.3 µg/mL (≈ 41.1 µM); in the data set on Aspergillus flavus, > 32 µg/mL. Further, the figures for the selectivity ratio in [2], in [4] and in data set [8] were 6.5, 10.9 and 1.4, respectively. The compound further showed a concentration for half-maximal inhibition (IC50) with Vero of 26.1 µg/mL (≈ 95 µM).
As to `CC1(C)CCCc2cc3c(cc21)C(=O)C(Cl)=C(Cl)C3=O`, the result with Candida parapsilosis [10] was Active. The MIC90 in the data set with Pichia kudriavzevii is 1 µg/mL (≈ 3.23 µM); against Trichophyton rubrum, 8 µg/mL (≈ 25.9 µM); in the data set on Candida albicans [1], 8 µg/mL (≈ 25.9 µM); in the data set on Aspergillus terreus, > 32 µg/mL; in data set [3] it was 6.1 µg/mL (≈ 19.7 µM); against Aspergillus fumigatus, 8 µg/mL (≈ 25.9 µM). Besides, the MIC90 against Candida albicans [5] was > 32 µg/mL; against Candida tropicalis [6], > 32 µg/mL; against Aspergillus niger, > 32 µg/mL; with Candida parapsilosis [7], 2 µg/mL (≈ 6.47 µM); in the data set with Clavispora lusitaniae, 2 µg/mL (≈ 6.47 µM); with Fusarium oxysporum it was > 32 µg/mL. The results for the MIC90 in the data set on Candida tropicalis [9] and in the data set on Aspergillus flavus were 5 µg/mL (≈ 16.2 µM) and 4.8 µg/mL (≈ 15.5 µM), respectively. The selectivity ratio in data set [4] was > 25; in [11], > 12.5; in [12] it was > 5.2; in [14] it was > 12.5. Further, the half-maximal inhibitory concentration (IC50) in the data set on Vero is ≤ 25 µg/mL. Also, in the data set with Candida parapsilosis [13], the outcome was inactive.
For the compound `CC1(C)CCCc2cc3c(cc21)C(=O)C=C(Cl)C3=O`, the result in the data set with Candida parapsilosis [10] was Active. The MIC90 in the data set on Pichia kudriavzevii was 2 µg/mL (≈ 7.28 µM); against Trichophyton rubrum, 5 µg/mL (≈ 18.2 µM); in the data set on Candida albicans [1] it was 16 µg/mL (≈ 58.2 µM); with Aspergillus terreus, > 32 µg/mL; in [3] it was 3.2 µg/mL (≈ 11.6 µM); with Aspergillus fumigatus, 16 µg/mL (≈ 58.2 µM). Further, the MIC90 is 20.2 µg/mL (≈ 73.5 µM) against Candida albicans [5]; 12.7 µg/mL (≈ 46.2 µM) against Candida tropicalis [6]; > 32 µg/mL in the data set with Aspergillus niger; 4 µg/mL (≈ 14.6 µM) against Candida parapsilosis [7]; 5 µg/mL (≈ 18.2 µM) with Clavispora lusitaniae; 16 µg/mL (≈ 58.2 µM) in the data set on Fusarium oxysporum. Moreover, the values for the MIC90 against Candida tropicalis [9] and in the data set with Aspergillus flavus were 8 µg/mL (≈ 29.1 µM) and > 32 µg/mL, respectively. Besides, the selectivity ratio in data set [15] was > 7.8; in [4], > 12.5; in data set [8], > 1.6. The compound further returned an IC50 in the data set on Vero of 109 µg/mL (≈ 397 µM). In addition, the outcome in the data set with Candida parapsilosis [13] was inactive.
As to `CC(=O)NC1=C(Cl)C(=O)c2cc3c(cc2C1=O)CCCC3(C)C`, the MIC90 in the data set with Pichia kudriavzevii was 2.8 µg/mL (≈ 8.44 µM); against Trichophyton rubrum, 5 µg/mL (≈ 15.1 µM); in the data set on Candida albicans [1], 8 µg/mL (≈ 24.1 µM); in the data set with Aspergillus terreus, > 32 µg/mL; in data set [3], 3.2 µg/mL (≈ 9.64 µM); against Aspergillus fumigatus, 22.6 µg/mL (≈ 68.1 µM). Moreover, the MIC90 in the data set on Candida albicans [5] was 4 µg/mL (≈ 12.1 µM); with Candida tropicalis [6] it was 6.4 µg/mL (≈ 19.3 µM); in the data set on Aspergillus niger, > 32 µg/mL; against Candida parapsilosis [7], 8 µg/mL (≈ 24.1 µM); against Clavispora lusitaniae, 2.2 µg/mL (≈ 6.63 µM); in the data set with Fusarium oxysporum it was 32 µg/mL (≈ 96.4 µM). Also, the results for the MIC90 against Candida tropicalis [9] and against Aspergillus flavus were 4 µg/mL (≈ 12.1 µM) and > 32 µg/mL, respectively. Moreover, the selectivity ratio came to 7.1 in [15], 10.1 in [11] and 0.9 in data set [8]. Further, 22.3 µg/mL (≈ 67.2 µM) corresponded to half-maximal inhibition with Vero (IC50).
With `COc1ccc(NC2=C(Cl)C(=O)c3cc(CCCC(C)C)ccc3C2=O)cc1`, the MIC90 in the data set on Pichia kudriavzevii is > 32 µg/mL; against Trichophyton rubrum it was 12.7 µg/mL (≈ 31.9 µM); against Candida albicans [1], > 32 µg/mL; in the data set with Aspergillus terreus, > 32 µg/mL; in data set [3], 5 µg/mL (≈ 12.6 µM); in the data set on Aspergillus fumigatus it was > 32 µg/mL. Also, the MIC90 in the data set on Candida albicans [5] was > 32 µg/mL; with Candida tropicalis [6], > 32 µg/mL; in the data set on Aspergillus niger it was > 32 µg/mL; against Candida parapsilosis [7], > 32 µg/mL; in the data set on Clavispora lusitaniae, 16 µg/mL (≈ 40.2 µM); with Fusarium oxysporum it was > 32 µg/mL. The MIC90 was 32 µg/mL (≈ 80.4 µM) in the data set with Candida tropicalis [9] and > 32 µg/mL in the data set on Aspergillus flavus. The results for the selectivity ratio in data set [15] and in [11] were 7.1 and 2.2, respectively. This compound also returned a 50% inhibitory concentration (IC50) in the data set on Vero of 35.6 µg/mL (≈ 89.5 µM).
In the case of `CC(C)CCCc1ccc2c(c1)C(=O)C(Cl)=C(Cl)C2=O`, the MIC90 is > 32 µg/mL against Pichia kudriavzevii; 4 µg/mL (≈ 12.9 µM) against Trichophyton rubrum; > 32 µg/mL in the data set on Candida albicans [1]; > 32 µg/mL against Aspergillus terreus; 4 µg/mL (≈ 12.9 µM) in data set [3]; 8 µg/mL (≈ 25.7 µM) with Aspergillus fumigatus. For the same compound, the MIC90 in the data set with Candida albicans [5] is > 32 µg/mL; in the data set on Candida tropicalis [6], > 32 µg/mL; in the data set with Aspergillus niger, > 32 µg/mL; against Candida parapsilosis [7], > 32 µg/mL; in the data set on Clavispora lusitaniae, 20.2 µg/mL (≈ 64.9 µM); with Fusarium oxysporum it was > 32 µg/mL. Further, the MIC90 in the data set with Candida tropicalis [9] and with Aspergillus flavus was > 32 µg/mL each time. The selectivity ratio was > 50 in [2], > 50 in [15], > 9.9 in data set [11] and > 25 in [8]. In the data set with Vero, the half-maximal inhibitory concentration (IC50) was ≥ 200 µg/mL.
Consider `C[C@@H]1[C@H](O)[C@@H](C)/C=C/C=C/C=C/C=C/C=C/C=C/C=C/[C@H](O[C@@H]2O[C@H](C)[C@@H](O)[C@H](N)[C@@H]2O)C[C@@H]2O[C@](O)(C[C@@H](O)C[C@@H](O)[C@H](O)CC[C@@H](O)C[C@@H](O)CC(=O)O[C@H]1C)C[C@H](O)[C@H]2C(=O)O` [AMPHOTERICIN B], for which the outcome in the data set with Candida parapsilosis [10] was Active. The MIC90 is 2 µg/mL (≈ 2.16 µM) with Pichia kudriavzevii; < 0.004 µg/mL in the data set with Trichophyton rubrum; < 0.004 µg/mL in data set [3]; 2 µg/mL (≈ 2.16 µM) against Aspergillus fumigatus; 2 µg/mL (≈ 2.16 µM) with Candida parapsilosis [7]; 4 µg/mL (≈ 4.33 µM) against Aspergillus flavus. This compound gave a half-inhibitory concentration (IC50) in the data set with Vero of 28.6 µg/mL (≈ 30.9 µM). In addition, the selectivity ratio in data set [12] was 7.1.

Values taken from ChEMBL document CHEMBL2417537, “Synthesis and antifungal activity of terpenyl-1,4-naphthoquinone and 1,4-anthracenedione derivatives” (Eur J Med Chem, 2013).
